Experiment [1] deals with SOS1:KRAS (G12C) interaction (Homo sapiens (Human), UniProt Q07889). Put plainly: SOS1 KRas(G12C) FRET Assay. Format: binding. As to conditions: 0.5 nM His10-SOS1 (res. 564-1049), 2.5 nM GST-KRAS G12C (res. 1-169), 2 hrs at RT. In a few lines: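 GST-KRAS G12C (res. 1-169) at 2.5 nM and His10-SOS1 (res. 564-1049) at 0.5 nM, final, in PBS with 0.1% BSA, 5 mM MgCl2, 100 mM KF, 5 mM DTT and 0.5% DMSO. After 2 h at RT, FRET read at 665/615 nm and normalized to DMSO and no-SOS1 controls. IC50 by non-linear regression.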

Another experiment addresses human SOS1 (Homo sapiens (Human), UniProt Q07889). Put plainly: Surface Plasmon Resonance (SPR) SOS1 Binding Assay. The note with it: biotinylated SOS1 (res. 564-1049), Biacore 8K, 25° C., kinetic or steady state fit, 1:1 binding; read-out: hSOS1 KD. In a few lines: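 Biotinylated Avi-tagged human SOS1 (res. 564-1049) captured on streptavidin chip (~3,000 RU); compounds injected 60 s, dissociation 600 s, at 25° C in Tris pH 8.0 buffer with 5% DMSO. Reference- and blank-subtracted; KD from kinetic or steady-state 1:1 binding fit.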
A general note: SPR reads the build-up and loss of mass on a sensor chip optically.

Data on 6 compounds can be found in patent publication US20230348424A1, “HETEROCYCLIC COMPOUNDS AND METHODS OF USE” (Schrödinger, Inc., priority 2022, published 2023).

By IC50 is commonly meant the concentration at which inhibition is half-maximal. High values mean weaker potency in that assay, low ones greater potency in that assay. What is called Kd is the equilibrium constant for the complex coming apart. Turning to `CO[C@H]1CN(C)CC[C@H]1Nc1cc(=O)n(C2(C(F)F)CC2)cc1C(=O)N[C@H](C)c1cccc(C(F)F)c1F` [Example 153, N-((R)-1-(3-(difluoromethyl)-2-fluorophenyl)ethyl)-1-(1-(difluoromethyl)cyclopropyl)-4-(((3S,4R)-3-methoxy-1-methylpiperidin-4-yl)amino)-6-oxo-1,6-dihydropyridine-3-carboxamide], half-maximal inhibition in experiment [1] (IC50) required 58.4 nM. Also, on human SOS1, the Kd came to 25 nM.

In turn, `CO[C@@H]1CN(C)CC[C@@H]1Nc1cc(=O)n(C2(C(F)F)CC2)cc1C(=O)N[C@H](C)c1cccc(C(F)F)c1F` [Example 154, N-((R)-1-(3-(difluoromethyl)-2-fluorophenyl)ethyl)-1-(1-(difluoromethyl)cyclopropyl)-4-(((3R,4S)-3-methoxy-1-methylpiperidin-4-yl)amino)-6-oxo-1,6-dihydropyridine-3-carboxamide] displayed an IC50 in experiment [1] of 37.6 nM. Besides, the dissociation constant (Kd) at human SOS1 came to 23 nM.

In experiment [1], `C[C@@H](NC(=O)c1cn(C23CC(C2)C3)c(=O)cc1N[C@H]1CN2CCC1CC2)c1cccc(C(F)F)c1F` [Example 155, 1-(bicyclo[1.1.1]pentan-1-yl)-N-((R)-1-(3-(difluoromethyl)-2-fluorophenyl)ethyl)-6-oxo-4-(((R)-quinuclidin-3-yl)amino)-1,6-dihydropyridine-3-carboxamide] had an IC50 of 21.2 nM. Also, at human SOS1, the Kd came to 11 nM.

In experiment [1], `C[C@@H](NC(=O)c1cn(C23CC(C2)C3)c(=O)cc1N[C@@H]1CN2CCC1CC2)c1cccc(C(F)F)c1F` [Example 156, 1-(bicyclo[1.1.1]pentan-1-yl)-N-((R)-1-(3-(difluoromethyl)-2-fluorophenyl)ethyl)-6-oxo-4-(((S)-quinuclidin-3-yl)amino)-1,6-dihydropyridine-3-carboxamide] displayed an IC50 of 12.4 nM. On human SOS1, the Kd was found to be 3 nM.

For the compound “N-((R)-1-(2-fluoro-3- (trifluoromethyl)phenyl)et hyl)-4-(((1R,5S,6s)-3- methyl-3- azabicyclo[3.1.0]hexan-6- yl)amino)-6-oxo-1-(1- (trifluoromethyl)cycloprop yl)-1,6-dihydropyridine-3- carboxamide [Example 120]”, inhibition in experiment [1] was half-maximal at 35.7 nM (IC50). The Kd on human SOS1 was determined as 24 nM.

Compound “N-((R)-1-(3-(difluoromethyl)-2-fluorophenyl)ethyl)-1-(1- (difluoromethyl)cyclopropyl)-4-(((1R,5S,6s)-3-methyl-3-azabicyclo[3.1.0]hexan-6-yl)amino)-6- oxo-1,6-dihydropyridine-3-carboxamide [Example 55]” showed an IC50 in experiment [1] of 23.6 nM. The Kd at human SOS1 was determined as 12 nM.
